Ends that are not written are not given here.
What was measured:
Assay type in all cases: cell-based, human
[1] = tested on: HeLa cells; assay: Peptides toxicity assay (MTT assay), HeLa viability and proliferation; settings: for cytotoxicity (result in words): MTT staining, 24 h incubation with HeLa cells, concentrations up to 1000 μM (FIG. 3A, 3B)
Method: (§1) HeLa viability and proliferation in the presence of peptides was tested using a 3-(4,5-dimethylthiazol-2-yl)-2,5-diphenyltetrazolium bromide (MTT) assay.
(§2) (cf. “MTT-cell proliferation assay” Cell Biology: A Laboratory Handbook, Academic Press, 1998, Second Ed. vol.1; Y. Liu et al., “Mechanism of cellular 3-(4,5-dimethylthiazol-2-yl)-2,5-diphenyltetrazolium bromide (MTT) reduction”, J. Neurochem. 1997 vol. 69 pp. 581-93).
(§3) For each assay 7×10^3 cells/cm^2 were seeded on a 96-well plate (Nange Nunc) (100 μl/hole) and cultured for 24 h. In order to avoid saturation in cell growth after 24 h of peptide incubation, 7×10^3 cells/cm^2 were used in the proliferation measurement (instead of 21.4×10^3 cells/cm^2 seeded in previous experiments). After complete adhesion to the plate, the culture medium was discarded. Peptides were added at growing concentrations of 50, 100, 500, and 1000 μM. The cells were incubated for 3 h or 24 h at 37° C. under 5% CO2 atmosphere. MTT was added 2 h before the final incubation time, i.e., after 1 h for the 3 h incubation time and after 22 h for the 24 h incubation time at a final concentration per hole of 0.5 mg/ml. The cells with peptide and MTT were incubated for a further 2 h and then the medium was discarded by aspiration. Isopropanol was added to dissolve formazan, a dark blue coloured crystal observed in the wells. Absorbance was measured at λ=570 nm, 30 min after the addition of isopropanol. The cell viability was expressed as a percent ratio of cells treated with peptide against cells untreated used as control.

[2] = as above; settings: human, HeLa cells, MTT, 24 h incubation, read-out: cell viability; for viability at 24 h, 50 µM: peptide at 50 μM (FIG. 3B); for viability at 24 h, 500 µM: peptide at 500 μM (FIG. 3B)
Method: as §1, §2, §3

[3] = tested on: HeLa cells; assay: Microplate fluorimeter reader assay (cellular uptake of carboxyfluoresceinated peptides)
Method: Comparative properties of labelled peptides for translocation through the cell membrane were checked with HeLa human cell line. First, the extent of the uptake of the monomers, dimers and trimers at 50 μM concentration in HeLa cells was quantified using a fluorescence microplate reader assay. A dose-response analysis was then undertaken, incubating HeLa cells with the peptides at different concentrations. The cellular uptake of the new peptides was also studied by confocal laser scanning microscopy (CLSM).
HeLa cells were obtained from ATCC. They were maintained in DMEM ([…]) culture medium (Biological Industries) containing 10% Fetal Calf Serum (FCS), 2 mM glutamine, 50 u/ml penicillin and […] streptomycin. For confocal microscopy experiments, exponentially growing HeLa cells were detached from the culture flasks using a trypsin-0.25% EDTA solution and the cell suspension was seeded at a concentration of 21.4×10^3 cells/cm^2 onto glass coverslips or onto 8-well Lab-Teck™ chambered coverglass or on 96-well plate (Nalge Nunc International). Experiments were carried out 24 h later, when the confluence was about 60-70%. The carboxyfluoresceinated compounds were dissolved in PBS and sterilized with 0.22 μm filters (Millex-GV, PVDF, Durapore, Millipore). The peptides and 5(6)-carboxyfluorescein stock solutions were diluted in the cell culture medium. Non-adherent cells were washed away and attached cells were incubated at 37° C. in CO2 atmosphere in DMEM medium with a known concentration of peptides for 3 h.
For each assay, 21.4×10^3 cells/cm^2 were seeded and cultured for 24 h. After complete adhesion to the plate, the culture medium was changed. […] The measurement of fluorescence emitted was carried out after 30 min incubation with lysis buffer in a FL600 Microplate Fluorescence Reader (Bio-Tek). Fluorescence was measured at a λexcitation=485/20 nm and a λemission=530/25 nm. A triplicate of each peptide or carboxyfluorescein concentration was performed and the fluorescence emitted for the blanks (cells with culture medium and without peptides) was subtracted. […]

| Molecule | concentration at which cytotoxic [1] | viability at 24 h, 50 µM [2] | viability at 24 h, 500 µM [2] | cytotoxicity (result in words) [1] | further results |
| --- | --- | --- | --- | --- | --- |
| CC[C@H](C)[C@H](NC(=O)[C@H](CCCCN)NC(=O)[C@@H](NC(=O)[C@H](CCC(N)=O)NC(=O)[C@@H](N)CCCNC(=N)N)[C@@H](C)CC)C(=O)N[C@@H](Cc1c[nH]c2ccccc12)C(=O)N[C@@H](Cc1ccccc1)C(=O)N[C@@H](CCC(N)=O)C(=O)N[C@@H](CC(N)=O)C(=O)N[C@@H](CCCNC(=N)N)C(=O)N[C@@H](CCCNC(=N)N)C(=O)N[C@@H](CCSC)C(=O)N[C@@H](CCCCN)C(=O)N[C@@H](Cc1c[nH]c2ccccc12)C(=O)N[C@@H](CCCCN)C(=O)N[C@@H](CCCCN)C(N)=O [Antp, (Arg-Gln-Ile-Lys-Ile-Trp-Phe-Gln-Asn-Arg-Arg-Met-Lys-Trp-Lys-Lys)-NH2] | 50 µM |  |  |  |  |
| CC[C@H](C)[C@H](NC(=O)[C@H](CCCCN)NC(=O)[C@@H](NC(=O)[C@H](CCC(N)=O)NC(=O)[C@H](CCCNC(=N)N)NC(=O)c1ccc2c(c1)C(=O)OC21c2ccc(O)cc2Oc2cc(O)ccc21)[C@@H](C)CC)C(=O)N[C@@H](Cc1c[nH]c2ccccc12)C(=O)N[C@@H](Cc1ccccc1)C(=O)N[C@@H](CCC(N)=O)C(=O)N[C@@H](CC(N)=O)C(=O)N[C@@H](CCCNC(=N)N)C(=O)N[C@@H](CCCNC(=N)N)C(=O)N[C@@H](CCSC)C(=O)N[C@@H](CCCCN)C(=O)N[C@@H](Cc1c[nH]c2ccccc12)C(=O)N[C@@H](CCCCN)C(=O)N[C@@H](CCCCN)C(N)=O [CF-Antp-NH2] |  | 75% | 11% | cytotoxic at relatively low concentrations |  |
| (Arg-Lys-Lys-Arg-Arg-Gln-Arg-Arg-Arg)-NH2 (RKKRRQRRR-NH2) [Tat] | 50 µM |  |  |  |  |
| CF-(Val-Arg-Leu-Pro-Pro-Pro)3 |  |  |  |  | fluorescence emitted (uptake) compared with the other CF-(Val-X-Leu-Pro-Pro-Pro)n peptides ([3]; HeLa cells incubated 3 h at 50 μM, X=Arg and His, n=1-3 (FIG. 2A)): higher fluorescence intensity; degree of internalization measured against CF-Antp-NH2 ([3]; HeLa cells, relative to CF-Antp-NH2): 20 times lower; degree of internalization measured against CF-Tat-NH2 ([3]; HeLa cells, relative to CF-Tat-NH2): 15 times lower |
| N=C(N)NCCC[C@H](NC(=O)[C@H](CCCNC(=N)N)NC(=O)[C@H](CCCNC(=N)N)NC(=O)[C@H](CCC(N)=O)NC(=O)[C@H](CCCNC(=N)N)NC(=O)[C@H](CCCNC(=N)N)NC(=O)[C@H](CCCCN)NC(=O)[C@H](CCCCN)NC(=O)[C@H](CCCNC(=N)N)NC(=O)c1ccc2c(c1)C(=O)OC21c2ccc(O)cc2Oc2cc(O)ccc21)C(N)=O [CF-Tat-NH2] |  | 64% | 40% | cytotoxic at relatively low concentrations |  |
